How the values were obtained:
[1] = Comparative hypoglycemic activity of fenugreek seed powder, fenugreek components and the composition; settings: in vivo
From the text: The comparative results of fenugreek seed powder (whole), and the composition of the instant application are shown below to establish inventiveness of the application.
The activity was restricted to only a couple of components. Also, synergy was observed by a selective combination of three components of the composition. The same is elaborated with the help of experimental data as given below.

[2] = tested on: pancreas (potassium channel mediated insulin secretion); assay: K+ ions in pancreas homogenate by Biolyte analyser; format: in vivo, mouse; settings: pancreas homogenate at 1 hour; oral: Total amino acids 10 mg/kg, Trigonelline 75 mg/kg, Glyburide 10 mg/kg, Composition 30 mg/kg
Method: EXPERIMENT 6:—The effect of the composition prepared as per Experiment 1 & 2 as well as their individual components separated on column chromatography were studied on normal Swiss Albino mice (male) in the weight range of 25-30 gms for GTT. The animals were fed in the following manner. • 1) Administration of 2 gm/kg of glucose by Inter Peritonially. • 2) Administration of the drug (Orally):
• 3) Measurement of BSL at 0 minutes & 1 hour. • 4) Immediately after blood removal at 1 hour, the animals were sacrificed by tail flicking and the pancreas was removed and homogenized using tris buffer. After centrifugation, the homogenate was characterized by thin layer chromatography and K^+ Ions by Biolyte analyser. Following are the observations:
Decreased K+ ion concentration indicates the repolarisation effect as the ATP dependant IK-ATP

normal Swiss Albino mice = assay: GTT in normal Swiss Albino mice (BSL); format: in vivo, mouse; settings: glucose 2 gm/kg i.p.; oral: Total amino acids 10 mg/kg, Trigonelline 75 mg/kg, Glyburide 10 mg/kg, Composition 30 mg/kg
From the text: The animals were fed in the following manner. • 1) Administration of 2 gm/kg of glucose by Inter Peritonially. • 2) Administration of the drug (Orally): [table] […] After centrifugation, the homogenate was characterized by thin layer chromatography and K^+ Ions by Biolyte analyser.

[3] = tested on: Female wistar rats, sciatic nerve; assay: Partial sciatic nerve ligation: thermal hyperalgesia (hot plate); format: in vivo, rat; settings: 50 mg/kg, nerve ligated
Method: This experiment is conducted to evaluate the neuropathy effects. • 1. Partial Sciatic Nerve Ligation • 2.
(§1) Surgery:—Under ether anesthesia and aseptic conditions the right sciatic nerve was exposed at high thigh level. In sham operated animals the nerve was left intact and the wound was closed with 2 muscle suture and 3-4 skin sutures.
(§2) In experimental animals the sciatic nerve underwent partial injury. The dorsum of the nerve was carefully freed from surrounding connective tissues at a site near the trochanter just distil to the point at which the posterior biceps semitendinosus nerve branches off the common sciatic nerve. Using an irish forceps the nerve was fixed in its place by pinching the epineurium on its dorsal aspect, taking care not to press the nerve against underlying structures. An 4-0 silk suture was inserted into the nerve with ⅜ curved, reverse-cutting mini needle, and tightly ligated so that the dorsal ⅓−½ of the nerve thickness was trapped in the ligature. The wound was then closed as in sham operated rats. In all rats the left leg and sciatic nerve were untouched.
(§3) The animals were divided into following groups:—
(§4) Group 1 Control (vehicle treated) (but nerve not ligated)
(§5) Group 2 Sham treated (vehicle treated)(Surgery done but no ligation of nerve)
(§6) Group 3 Vitamin E acetate (50 mg/kg) (nerve ligated)
(§7) Group 4 Indus test drug (100 mg/kg) (nerve ligated)
(§8) Group 5 Indus test drug (200 mg/kg) (nerve ligated)
• a. Thermal hyperalgesia (TH):—This was assessed using Ugo Basile Hot Plate instrument (at 55±1° C.). Antinociceptive effects were determined according to the latency (in seconds) of limb withdrawal to the noxious thermal simulation (Ugo Basile hot plate, Versace, Italy). Cut off value of planter test was set to 22 s to prevent limb injury. The pain threshold were tested on day 0, 2, 4, 6, 8, 10, 12, 14, 21 and 28. • b. Motor function test (MFT):—Motor function was monitored by observation of spontaneous gait and hind paw posture. Each animal was placed in a plastic box with plexiglass walls and allowed to habituate for at least 5 minutes before the observation period. […] The readings were observed on day 0, 2, 15 and 30.

[4] = tested on: Female wistar rats, sciatic nerve; assay: Partial sciatic nerve ligation: motor function test, pain scale; format: in vivo, rat; settings: 50 mg/kg, scale 0 nil to 5 highly severe
Method: This experiment is conducted to evaluate the neuropathy effects. • 1. Partial Sciatic Nerve Ligation • 2. Formalin Induced Behavioral And Thermal Hyperalgesia Experiment 1: Partial Sciatic Nerve Ligation Material and Method:— Preparation of Animals:— Animals:—Female wistar rats 175-250 gram (n=6)
as §1, §2, §3, §4, §5, §6, §7, §8
• a. Thermal hyperalgesia (TH):—This was assessed using Ugo Basile Hot Plate instrument (at 55±1° C.). Antinociceptive effects were determined according to the latency (in seconds) of limb withdrawal to the noxious thermal simulation (Ugo Basile hot plate, Versace, Italy). […] Motor function test (MFT):—Motor function was monitored by observation of spontaneous gait and hind paw posture. […] The readings were observed on day 0, 2, 15 and 30.

Male wistar rats, kidney = assay: Diabetic nephropathy model (Alloxan plus left renal artery clamping); format: in vivo, rat
Method: Male wistar rats of 150-200 gram were injected Alloxan (150 mg/kg i.p.) to induce diabetes. Once the animals show blood sugar above 250 mg/dl, animals are divided in groups as mentioned below and dosing of same is started as per groups. After 7 days of dosing in test drug groups and 3 days dosing in insulin group surgery is performed. In all groups animals were anesthetized and a small midline incision was made to isolate left renal artery and clamped for 30 minutes after which animals were stitched back. This is a kidney ligation technique to induce diabetic nephropathy in experimental animals. In Group 1, complete procedure was same but no treatment is given. The animals were then allowed to recover and dosing was continued as per given in various groups till day 30th after surgery. Creatinine clearance was noted on 0th, 10th, 20th and 30th day. After 30 days animals were sacrificed and kidney was sent for histopathological evaluation. Group 1 Saline (untreated) Group 2 Test drug (low dose) Group 3 Test drug (medium dose) Group 4 Test drug (high dose) Group 5 Standard (insulin)

C[n+]1cccc(C(=O)[O-])c1 [Trigonelline]
Hypoglycemic activity (%) [1]: 31% | K+ Ions (μ Mol) [2]: 21.8 μ Mol | BSL after 1 hour (normal Swiss Albino mice): 233 mg/dL | BSL at 0 hrs (normal Swiss Albino mice): 341 mg/dL

CC(=O)Oc1c(C)c(C)c2c(c1C)CCC(C)(CCC[C@H](C)CCC[C@H](C)CCCC(C)C)O2 (some centres unmarked) [Vitamin E, Vitamin E acetate]
Thermal hyperalgesia, latency of limb withdrawal ([3]; 0th day (before ligation)): 9.51 s | Thermal hyperalgesia, latency of limb withdrawal ([3]; 2nd day): 3.24 s | Thermal hyperalgesia, latency of limb withdrawal ([3]; 4th day): 5.9 s | Thermal hyperalgesia, latency of limb withdrawal ([3]; 6th day): 7.12 s | Thermal hyperalgesia, latency of limb withdrawal ([3]; 8th day): 7.95 s | Thermal hyperalgesia, latency of limb withdrawal ([3]; 10th day): 9.81 s | Thermal hyperalgesia, latency of limb withdrawal ([3]; 12th day): 9.88 s | Thermal hyperalgesia, latency of limb withdrawal ([3]; 14th day): 10.04 s | Motor function test, Pain scale ([4]; 0th day): 0 | Motor function test, Pain scale ([4]; 2nd day): 2.77 | Motor function test, Pain scale ([4]; 15th day): 1.25

COc1ccc(Cl)cc1C(=O)NCCc1ccc(S(=O)(=O)NC(=O)NC2CCCCC2)cc1 [Glyburide]
K+ Ions (μ Mol) [2]: 22.5 μ Mol | BSL after 1 hour (normal Swiss Albino mice): 251 mg/dL | BSL at 0 hrs (normal Swiss Albino mice): 365 mg/dL

insulin: Standard in nephropathy model
Histopathology of the kidney: cellularity and matrix (Male wistar rats, kidney; insulin group): did not show any increase in cellularity and matrix | Histopathology of the kidney: tubular necrosis, interstitial fibrosis (Male wistar rats, kidney; insulin treated group): very mild

— US7674486B2, “Synergistic composition for the treatment of diabetes mellitus” (Indus Biotech Pvt. Ltd., priority 2003, dated 2010)
